Data as given in patent US8293488B2, “Method for screening neurogenic agents” (Neuralstem, Inc., priority 2002, dated 2012).

Assays:
Assay type in all cases: cell-based
[1] = tested on: human hippocampal multipotent stem/progenitor cells; assay: Proliferation by Alamar Blue staining of live cells after 7 days of compound treatment; details: 7 days compound treatment, relative to vehicle control
Description: FIG. 4. Examples of proliferation profile of compounds selected from primary screening. Proliferation was measured after compound treatment for 7 days by Alamar Blue staining of live cells per well. Shown are relative values over the vehicle control.
(§1) (1) Undifferentiated human neural stem/progenitor cells were harvested by enzyme treatment.
(§2) (2) The collected cells were seeded at 40,000 cells per well of 96-well plates pre-coated with extracellular matrix proteins (e.g., Biocoat PDL, Fisher). The seeding media is a standard serum-free, growth factor-free, basal media that supports healthy neuronal/glial survival, such as N2 without phenol red.
(§3) (3) Test agents at appropriate concentrations were added to each well on Day 0.
(4) The assay plates were incubated for 7 days, with 50% media change at every other day. On Day 2, 4, and 6 of post-plating, additional increment of the screening agents at appropriate concentrations were added to each well. […]
(6) The fluorescence of the oxidized dye in each well was read by a fluorescent plate reader with the following settings:
Excitation 530 nm, emission 590 nm, cutoff 570 nm The fluorescence level is proportional to the number of respiring cells in the culture and is a measure of a proliferative activity of a test agent (FIG. 2).

[2] = tested on: differentiating human hippocampal progenitor cells; assay: Dose-response of neuron number (TuJ1 positive cells, automated cell counter); details: 7 days, 100 picaM to 100 microM
Description: FIG. 6. Examples of neurogenesis profile of compounds selected from primary screening. After 7 days of compound treatment, the cells were stained with TuJ1 for neurons. The absolute number of TuJ1+ neurons per area was quantified and expressed as a relative value to the vehicle treated control.
FIG. 7. Dose-dependent increase in neuron number. Differentiating human hippocampal progenitor cells were treated for 7 days with varying concentrations of “primary hits”. Subsequently, the cells were fixed, stained with TuJ1, and positive cells were quantified by an automated cell counter. Shown are the number of neurons after each treatment normalized against the vehicle control (0 microM=1.0).
(§4) Linearity of dose-response and in vitro neurotoxicity are used to further filter down desired compounds from the primary screen. The dose-response curve measures neurogenesis over a concentration range of 100 picaM to 100 microM. The rationale for this is to eliminate early on those compounds with pronounced toxicity and those without a dose-dependent effect on neurogenesis. […] Table II contains the summary of EC50 of each compound tested.

[3] = tested on: differentiating human hippocampal progenitor cells; assay: In vitro neurotoxicity from dose-response curves; details: dose-response up to 100 microM
Description: as §4

[4] = tested on: human hippocampal progenitor cells; assay: In vitro neurogenesis assay (primary screen, positive control selection); details: for effective in the neurogenesis assay: growth factors 20 ng/ml, 7 days
Description: FIG. 3A. Influence of known growth factors on proliferation and neurogenesis relative to control. Hippocampal progenitor cells were treated for seven days with differentiation media (without mitogen) in the presence or absence of 20 ng/ml of growth factor dosed every other day. Plates were treated with Alamar Blue as described in Methods, then fixed and stained with antibody (TuJ1) against type III beta-tubulin (neuronal marker). The 96-well plate was read in a fluorescent plate reader. Bars represent the Mean+SD from 4 wells per treatment.
as §1, §2, §3
(4) The assay plates were incubated for 7 days, with 50% media change at every other day. On Day 2, 4, and 6 of post-plating, additional increment of the screening agents at appropriate concentrations were added to each well.
(7) After the alamar blue assay, the cells were fixed and stained with antibodies against neuron-specific antigens according to standard procedures. Typical antigens effective were Type III-beta tubulin and MAP2c.
(§5) (9) As a preliminary detection of positive activities, the overall immunostaining intensity in each well was read by a fluorescence plate reader. For the positive hits, more quantitative analysis was carried out by automated morphometric counting of individual cells.
Thus, the assay can discriminate test agents for selectively having a neurogenic activity. The positive control utilized is leukemia inhibitory factor (LIF), a cytokine growth factor, at 20 ng/ml. The selection of LIF as the positive control is based on its properties to increase by 2-3 fold the number of neurons and glia. This effect validates both the neural stem cell system, in which, should a compound be effective in neurogenesis, the cells respond appropriately by enhanced differentiation and/or mitosis, and the assay method in which such cellular responses can be measured reproducibly and quantifiably.
5,628 synthetic compounds of the type Fused Imidazoles, Aminopyrimidines, Nicotinamides, Aminomethyl Phenoxypiperidines and Aryloxypiperidines are evaluated for their effect on neurogenesis according the assay method described above. […] Those were re-analyzed by quantitative neuron counting. […] The significance level was empirically set at an activity above 30% change over the vehicle control for proliferation and above 10% change for neurogenesis.

[5] = tested on: human hippocampal multipotent stem/progenitor cells; assay: Neurogenesis: ratio of TuJ1 stained neurons to total nuclei after 7 days; details: 20 ng/ml, differentiation media without mitogen, manual cell counting, controls 48.5+6.3%
Description: FIG. 3B. LIF effects on hippocampal cell proliferation and neurogenesis by manual cell counting. Hippocampal progenitor cells were treated for seven days with differentiation media (without mitogen) in the presence or absence of 20 ng/ml LIF. Three fields were analyzed per well for total number of cells (DAPI positive nuclei) and for total number of neurons (TUJI positive cells). Bars represent the Mean+SD from 4 wells per treatment. The percentage of neurons calculated for each treatment are as follows: 48.5+6.3% for controls and 53.6+1.15 for LIF. The non-TUJ1 positive cells are mainly astrocytic (GFAP+).
FIG. 5. Example of neurogenesis profile of compounds selected from primary screening. After 7 days of compound treatment, the ratio of neuron number (TuJ1 stained) to the total nuclei number (Hoechst stained) was determined. Shown are the relative ratio of neuron:total cells for each compound over the vehicle control in percentage. […]
(8) The total cell number in each well was quantified by staining the cultures with a nuclear dye such as DAPI or Hoechst according to standard procedures.
as §5

In the case of `CCCCNc1c(C2CCN(C(=O)CN(CC(C)C)S(C)(=O)=O)CC2)nc2cnccn12` [NSI-106], the “Proliferation (% of Control)” value [1] is reported as 211 ± 48 % of Control, the EC50 [2] is reported as 0.1 nM and the “Other Characterization of Toxicity” value [3] is reported as “No Toxicity”.

With `NC(=O)c1cnc(NCc2ccc(Cl)cc2)nc1NCC1CCCCC1` [NSI-144] the “Proliferation (% of Control)” value [1] was 149 ± 15 % of Control, the EC50 [2] was 1 nM and the “Other Characterization of Toxicity” value [3] was “No Toxicity”.

For `COc1ccc(C2CNC(=O)C2)cc1OC1CCCC1` (stereo not shown) [Rolipram, rolipram, reference compound], the “effective in the neurogenesis assay” value [4] was “effective”.

With leukemia inhibitory factor [LIF] the “percentage of neurons (TUJ1 positive cells of DAPI positive nuclei)” value [5] was 53.6+1.15, the “increase in the number of neurons and glia” value ([4]; 20 ng/ml) was 2-3 fold and the “effective in the neurogenesis assay” value [4] was “effective”.

B1: glia-derived neurotrophic factor (protein, UniProt P39905 78-211, looked up)
Glial cell line-derived …: SPDKQMAVLPRRERNRQAAAANPENSRGKGRRGQRGKNRGCVLTAIHLNVTDLGLGYETKEELIFRYCSGSCDAAETTYDKILKNLSRNRRLVSDKVGQACCRPIAFDDDLSFLDDNLVYHILRKHSAKRCGCI
With B1 the “effective in the neurogenesis assay” value [4] was “Only one (leukemia inhibitory factor) was effective”.

B2: neurotrophic factor-3 (protein, UniProt P20783 139-257, looked up)
Neurotrophin-3: YAEHKSHRGEYSVCDSESLWVTDKSSAIDIRGHQVTVLGEIKTGNSPVKQYFYETRCKEARPVKNGCRGIDDKHWNSQCKTSQTYVRALTSENNKLVGWRWIRIDTSCVCALSRKIGRT
B2 was tested, and the “effective in the neurogenesis assay” value [4] was “Only one (leukemia inhibitory factor) was effective”.

B3: brain-derived neurotrophic factor (protein, UniProt P23560 19-247, looked up)
Neurotrophic factor BDNF …: APMKEANIRGQGGLAYPGVRTHGTLESVNGPKAGSRGLTSLADTFEHVIEELLDEDQKVRPNEENNKDADLYTSRVMLSSQVPLEPPLLFLLEEYKNYLDAANMSMRVRRHSDPARRGELSVCDSISEWVTAADKKTAVDMSGGTVTVLEKVPVSKGQLKQYFYETKCNPMGYTKEGCRGIDKRHWNSQCRTTQSYVRALTMDSKKRIGWRFIRIDTSCVCTLTIKRGR
For B3, the “effective in the neurogenesis assay” value [4] was “Only one (leukemia inhibitory factor) was effective”.
